# Results published in US20230008368A1, “IMIDAZOQUINOLINE SUBSTITUTED PHOSPHORIC ESTER AGONIST, AND PREPARATION THEREFOR AND APPLICATION THEREOF” (SUZHOU ZELGEN BIOPHARMACEUTICALS CO., LTD., priority 2019, published 2023).
# Where two headings read alike, the source gives them in different places.
# Key:
# [1] = cytotoxicity, cell viability by CellTiter-Glo; assay type: cell-based, human; conditions: human, HEK-Blue hTLR cells, cultured 1 day
# Description: (§1) The compound was diluted with 1:3 series with DMSO for 9 concentration points, duplicated wells, and added to 96-well plate with Echo.
# (§2) The HEK-Blue™ hTLR cells were suspended in the culture medium and then seeded into a 96-well plate containing the compound at a density of 50,000 cells/well. Cells were cultured at 5% CO2 and 37° C. for 1 day. The final concentration of DMSO in the cell culture medium was 0.5%.
# (§3) According to the CellTiter-Glo instructions, the cell viability was measured, and the Luminescence signal value was read by the microplate reader, which was used to calculate the cytotoxicity of the compound.
# (§4) The EC50 and CC50 values of the compound were calculated by GraphPad Prism software, and the fitting curve was plotted.
# hTLR8 = biological target: T1, hTLR8 (Homo sapiens, UniProt Q9NR97); assay: agonistic activity on hTLR8, HEK-Blue hTLR cells, SEAP reporter (QUANTI-Blue); assay type: cell-based; conditions: for EC50: SEAP reporter, OD650, cultured 1 day; for TLR 8 selectivity TLR 7/TLR 8: ratio of TLR 7 EC50 to TLR 8 EC50
# T1 construct: expressed in transfected cells; host or cells: HEK-Blue hTLR cells
# T1 sequence (Q9NR97 27-1041): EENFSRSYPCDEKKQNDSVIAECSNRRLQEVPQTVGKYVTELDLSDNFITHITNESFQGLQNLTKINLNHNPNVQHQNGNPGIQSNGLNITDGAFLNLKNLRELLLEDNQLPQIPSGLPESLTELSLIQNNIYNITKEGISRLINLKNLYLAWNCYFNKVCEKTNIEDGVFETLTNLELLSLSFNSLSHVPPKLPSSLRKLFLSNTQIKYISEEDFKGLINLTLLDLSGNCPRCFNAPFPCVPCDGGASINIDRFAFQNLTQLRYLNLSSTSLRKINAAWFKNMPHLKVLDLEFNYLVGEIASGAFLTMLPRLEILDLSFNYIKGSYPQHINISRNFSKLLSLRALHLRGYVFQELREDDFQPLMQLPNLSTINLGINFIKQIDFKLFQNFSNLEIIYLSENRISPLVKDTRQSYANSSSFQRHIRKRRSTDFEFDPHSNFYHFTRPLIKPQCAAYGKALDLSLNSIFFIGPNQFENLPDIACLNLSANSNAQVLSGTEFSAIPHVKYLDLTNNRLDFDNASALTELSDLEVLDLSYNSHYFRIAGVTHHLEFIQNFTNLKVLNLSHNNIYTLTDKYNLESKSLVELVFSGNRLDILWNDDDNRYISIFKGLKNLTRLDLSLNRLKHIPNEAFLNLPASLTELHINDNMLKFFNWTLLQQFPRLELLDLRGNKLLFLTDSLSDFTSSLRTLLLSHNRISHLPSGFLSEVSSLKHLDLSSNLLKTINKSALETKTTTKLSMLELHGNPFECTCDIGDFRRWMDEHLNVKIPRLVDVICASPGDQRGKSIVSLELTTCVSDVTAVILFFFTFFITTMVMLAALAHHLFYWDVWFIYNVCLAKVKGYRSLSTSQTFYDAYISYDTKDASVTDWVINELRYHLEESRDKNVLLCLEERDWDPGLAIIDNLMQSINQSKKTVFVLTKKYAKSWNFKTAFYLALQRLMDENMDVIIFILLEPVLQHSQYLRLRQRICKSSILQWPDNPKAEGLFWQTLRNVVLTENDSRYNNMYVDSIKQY
# Description: (§5) Experiments on the agonistic activity of TLR7 and TLR8 by the compounds in vitro
# as §1, §2
# (§6) 20 uL cell culture supernatant was taken, according to the QUANTI-Blue instructions, the reporter gene SEAP in the supernatant was detected, and the OD650 signal value was read with a microplate reader to calculate the agonist activity of the compound on the hTLR7 and hTLR8.
# as §4
# hTLR7 = biological target: T2, hTLR7 (Homo sapiens, UniProt Q9NYK1); assay: agonistic activity on hTLR7, HEK-Blue hTLR cells, SEAP reporter (QUANTI-Blue); assay type: cell-based; conditions: for TLR 7 selectivity TLR 8/TLR 7: ratio of TLR 8 EC50 to TLR 7 EC50
# T2 construct: expressed in transfected cells; host or cells: HEK-Blue hTLR cells
# T2 sequence (Q9NYK1 27-1049): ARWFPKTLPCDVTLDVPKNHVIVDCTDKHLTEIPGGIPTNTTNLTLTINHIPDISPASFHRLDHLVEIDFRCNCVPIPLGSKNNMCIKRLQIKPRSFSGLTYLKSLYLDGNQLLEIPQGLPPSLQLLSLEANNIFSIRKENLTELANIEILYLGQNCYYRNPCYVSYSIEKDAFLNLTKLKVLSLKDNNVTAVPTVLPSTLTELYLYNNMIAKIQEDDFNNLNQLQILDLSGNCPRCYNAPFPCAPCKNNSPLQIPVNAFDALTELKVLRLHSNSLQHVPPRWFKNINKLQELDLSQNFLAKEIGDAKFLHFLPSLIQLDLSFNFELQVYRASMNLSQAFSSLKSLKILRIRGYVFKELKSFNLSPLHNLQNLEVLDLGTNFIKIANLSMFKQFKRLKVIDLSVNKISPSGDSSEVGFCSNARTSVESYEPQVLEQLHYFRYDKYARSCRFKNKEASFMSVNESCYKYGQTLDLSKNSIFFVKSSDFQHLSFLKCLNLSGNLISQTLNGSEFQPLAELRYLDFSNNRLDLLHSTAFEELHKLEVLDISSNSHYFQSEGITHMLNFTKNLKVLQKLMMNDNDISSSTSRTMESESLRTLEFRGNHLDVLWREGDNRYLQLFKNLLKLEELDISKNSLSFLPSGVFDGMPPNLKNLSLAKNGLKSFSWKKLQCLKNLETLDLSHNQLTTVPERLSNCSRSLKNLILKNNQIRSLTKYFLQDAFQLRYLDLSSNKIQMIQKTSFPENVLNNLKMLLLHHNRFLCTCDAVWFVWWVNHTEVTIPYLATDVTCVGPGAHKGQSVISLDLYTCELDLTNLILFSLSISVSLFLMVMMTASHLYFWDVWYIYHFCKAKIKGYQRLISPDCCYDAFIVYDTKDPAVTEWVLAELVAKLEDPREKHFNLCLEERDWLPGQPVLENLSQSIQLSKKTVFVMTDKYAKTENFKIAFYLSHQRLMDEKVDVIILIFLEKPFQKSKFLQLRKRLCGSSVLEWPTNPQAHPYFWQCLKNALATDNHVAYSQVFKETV
# Description: as §5, §1, §2, §6, §4
# HEK-Blue™ hTLR cells = assay: cytotoxicity, cell viability by CellTiter-Glo; assay type: cell-based, human; conditions: cultured 1 day
# Description: as §1, §2, §3, §4
# [2] = HEK-Blue hTLR cells, read-out: TLR 8 EC50
# [3] = HEK-Blue hTLR cells, SEAP reporter, OD650, cultured 1 day, read-out: TLR 7 EC50
# [4] = TLR 8 EC50, HEK-Blue hTLR cells
TLR 7 selectivity TLR 8/TLR 7 (hTLR7),Compound,CC50 at 1 day [1] [µM],EC50 (hTLR8; [2]) [µM],TLR 8 selectivity TLR 7/TLR 8 (hTLR8),EC50 (hTLR7; [3]) [µM],CC50 (HEK-Blue™ hTLR cells) [µM],EC50 (hTLR8; [4]) [µM],EC50 (hTLR7) [µM]
–,"CCOCc1nc2c(N)nc3ccccc3c2n1C[C@@H](C)O[P@@](=O)(N[C@@H](C)C(=O)OCc1ccccc1)Oc1ccccc1 (single isomer, unassigned) [Example 16A]",> 30,0.0354,165,5.83,–,–,–
–,"CCOCc1nc2c(N)nc3ccccc3c2n1C[C@@H](C)O[P@@](=O)(N[C@@H](C)C(=O)OC(C)C)Oc1cccc(Cl)c1 (single isomer, unassigned) [Example 11A]",> 30,0.0091,640,5.83,–,–,–
–,"CCOCc1nc2c(N)nc3ccccc3c2n1C[C@@H](C)OP(=O)(N[C@@H](C)C(=O)OC(C)C)Oc1cccc2ccccc12 (single isomer, unassigned) [Example 5B]",–,0.017,–,–,> 30,–,–
–,"CCOCc1nc2c(N)nc3ccccc3c2n1C[C@@H](C)O[P@@](=O)(N[C@@H](C)C(=O)OC(C)C)Oc1ccccc1 (single isomer, unassigned) [Example 2A]",> 30,–,3.2,–,–,0.881,2.8
–,"CCOCc1nc2c(N)nc3ccccc3c2n1C[C@@H](C)O[P@](=O)(N[C@@H](C)C(=O)OC(C)C)Oc1ccccc1 (single isomer, unassigned) [Example 3A]",> 30,9.08,>3.3,> 30,–,–,–
–,"CCOCc1nc2c(N)nc3ccccc3c2n1C[C@@H](C)O[P@@](=O)(N[C@@H](C)C(=O)OC(C)(C)C)Oc1ccc(OC)cc1 (single isomer, unassigned) [Example 18A]",> 30,0.203,>148,> 30,–,–,–
–,"CCOCc1nc2c(N)nc3ccccc3c2n1C[C@@H](C)O[P@@](=O)(N[C@@H](C)C(=O)OC(C)(C)C)Oc1ccc(Cl)cc1 (single isomer, unassigned) [Example 19A]",> 30,0.0585,>513,> 30,–,–,–
–,"CCOCc1nc2c(N)nc3ccccc3c2n1C[C@H](C)O[P@@](=O)(N[C@@H](C)C(=O)OC(C)C)Oc1ccccc1 (single isomer, unassigned) [Example 2B]",> 30,–,39.4,–,–,0.077,3.03
–,"CCOCc1nc2c(N)nc3ccccc3c2n1C[C@H](C)O[P@](=O)(N[C@@H](C)C(=O)OC(C)C)Oc1ccccc1 (single isomer, unassigned) [Example 3B]",> 30,1.86,1.9,3.61,–,–,–
2.8,"CCOCc1nc2c(N)nc3ccccc3c2n1C[C@@H](C)O (single isomer, unassigned) [Example 1B]",> 30,3.6,–,1.27,–,–,–
–,"CCOCc1nc2c(N)nc3ccccc3c2n1C[C@@H](C)O[P@@](=O)(N[C@@H](C)C(=O)OC(C)C)Oc1ccc(C)cc1 (single isomer, unassigned) [Example 9A]",> 30,0.0079,1202,9.5,–,–,–
–,"CCOCc1nc2c(N)nc3ccccc3c2n1C[C@@H](C)O[P@@](=O)(N[C@@H](C)C(=O)OC(C)(C)C)Oc1ccc(C)cc1 (single isomer, unassigned) [Example 17A]",> 30,0.133,>226,> 30,–,–,–
2.5,CCOCc1nc2c(N)nc3ccccc3c2n1C[C@H](C)O [Example 1A],> 30,1.08,–,0.44,–,–,–
–,"CCOCc1nc2c(N)nc3ccccc3c2n1C[C@@H](C)O[P@@](=O)(N[C@@H](C)C(=O)OC(C)(C)C)Oc1ccccc1 (single isomer, unassigned) [Example 14A]",> 30,0.366,43,15.8,–,–,–
–,"CCOCc1nc2c(N)nc3ccccc3c2n1C[C@@H](C)O[P@@](=O)(N[C@@H](C)C(=O)OC(C)C)Oc1ccc(Cl)cc1 (single isomer, unassigned) [Example 12A]",> 30,0.0035,1735,6.07,–,–,–
–,"CCOCc1nc2c(N)nc3ccccc3c2n1C[C@@H](C)O[P@@](=O)(N[C@@H](C)C(=O)OC(C)C)Oc1cccc2ccccc12 (single isomer, unassigned) [Example 5A]",17.9,0.0092,>1086,> 10,–,–,–
–,"CCOCc1nc2c(N)nc3ccccc3c2n1C[C@@H](C)O[P@@](=O)(N[C@@H](C)C(=O)OC(C)C)Oc1ccc2ccccc2c1 (single isomer, unassigned) [Example 6A]",> 30,0.0056,1301,7.29,–,–,–

Compound,TLR 7 selectivity TLR 8/TLR 7 (hTLR7),CC50 at 1 day [1] [µM],EC50 (hTLR8; [2]) [µM],TLR 8 selectivity TLR 7/TLR 8 (hTLR8),EC50 (hTLR7; [3]) [µM],CC50 (HEK-Blue™ hTLR cells) [µM],EC50 (hTLR8; [4]) [µM],EC50 (hTLR7) [µM]
CCOCc1nc2c(N)nc3ccccc3c2n1CC(C)O (stereo not shown) [Example 1],2.4,> 30,1.59,–,0.666,–,–,–
